# Data from patent publication US20250115598A1 (Anaxis Pharma Pty Ltd, priority 2021, published 2025).
# Where two headings read alike, the source gives them in different places.
# What was measured:
# U937 cells = experiment: Counter screen: cell viability without the TSQ cocktail (off-target effect); design: species or system human
# Method: (§1) • Cell Line ID: U937 human histiocytic leukemia cell line. • Cell Concentration (cells/well): Final cell density is 20000 cells per well. • Cell growth medium: HT-RPMI medium+7.4% Fetal Bovine Serum (FBS). Cells are cultured in Corning 150 cm^2 tissue culture flasks with vented caps at 37° C./5% CO2. • Incubation: Plates were incubated at 37° C./5% CO2 in a humidified incubator for 48 hours following addition of compounds and death stimuli (TSQ cocktail). • Compound concentration: 36 μM starting concentration, 1:3 dilution, 10 point • DMSO final concentration (% v/v): 0.3%. Compounds in TSQ Cocktail (T: TNF; S: Smac Mimetic; Q: Q-VD-OPh) and their Final Concentrations: • hTNF-Fc (100 ng/ml)—produced by standard procedures as shown in Bossen et al., J. Biol. Chem., 2006, 281(20), 13964-13971. • Compound A (500 nM)—Smac mimetic, Tetralogic and SYNthesis med chem • Q-VD-OPh (10 μM)—MP Biomedicals
# (§2) The cellular assay was carried out according to the following steps: • 1. Each well was prepared by sequential addition of: • a. DMSO (control; columns 1-2 and 23-24) or compound in DMSO—addition was performed using acoustic transfer of nL volumes of stock compound to give final test concentrations of 36, 12, 4, 1.3, 0.44, 0.148, 0.049, 0.016, 0.005 and 0.002 μM. All wells were backfilled with DMSO to a final total volume in the well of 100 nL. • b. Following compound/DMSO addition in step (a), 40 μL of cell suspension (5×10^5 cells/mL) was added to provide a final cell concentration of 20,000 cells per well, and • c. Following cell addition in step (b), 10 μL of 5×TSQ cocktail (except to positive controls; columns 1 and 23) was added to each well. • 2. After 48 hours, plate was removed from the 37° C. incubator and equilibrated to room temperature for 45 minutes. • 3.15 μL of room temperature CellTitre-Glo2™ (Promega™) was added to each well. • 4. Shook plates for 2 minutes (˜600 rpm) and incubated at room temperature for 15 minutes to allow signal to stabilise. • 5. Read luminescence readout on a plate reader.
# (§3) • Assay involving the TSQ cocktail (T: TNF; S: Smac mimetic; Q: Q-VD-OPh): TSQ treatment ensures that cells specifically undergo necroptotic cell death. TNF activates the TNF receptor, Smac mimetic directs the signal away from proinflammatory signaling and toward the RIPK1/RIPK3-mediated cell death pathways, and Q-VD-OPh ensures that the apoptotic response is blocked leaving only the programmed necrosis response. The compounds' activity (solution in DMSO) tested in this TSQ-induced assay was evaluated by determining the number of viable cells in culture by measuring the amount of ATP present as measured by CelltiterGlo. • Counter screen: In parallel, all compounds were tested for their ability to affect cell viability. The same U937 cells were treated with compound in DMSO without the TSQ cocktail. This counter screen enabled evaluation of off-target effects. In this case, cell viability was measured by CelltiterGlo.
# human MLKL (full length) = human MLKL (full length) (Homo sapiens (Human), UniProt Q8NB16); experiment: KINOMEscan binding assay, human MLKL (full length); settings: hMLKL, Table 25; read-out: MLKL (KD)
# Chain of human MLKL (full length) (Q8NB16 whole entry): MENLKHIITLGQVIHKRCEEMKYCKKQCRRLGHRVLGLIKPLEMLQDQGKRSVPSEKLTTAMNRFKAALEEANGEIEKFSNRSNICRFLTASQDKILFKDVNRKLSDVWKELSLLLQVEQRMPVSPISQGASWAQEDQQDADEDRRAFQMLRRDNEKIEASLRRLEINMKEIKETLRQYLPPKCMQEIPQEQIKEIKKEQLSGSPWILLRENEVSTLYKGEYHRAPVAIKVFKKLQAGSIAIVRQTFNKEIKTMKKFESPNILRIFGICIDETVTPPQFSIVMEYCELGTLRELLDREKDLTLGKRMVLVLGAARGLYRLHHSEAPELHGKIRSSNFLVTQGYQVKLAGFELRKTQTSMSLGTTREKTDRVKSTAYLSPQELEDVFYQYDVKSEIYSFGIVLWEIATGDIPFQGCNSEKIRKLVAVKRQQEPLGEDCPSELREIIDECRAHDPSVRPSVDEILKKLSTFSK
# Method in brief: (§4)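 Compound dilutions (11 points, 3-fold, mostly from 30,000 nM, 1% DMSO final) competed with immobilized ligand for DNA- or phage-tagged protein, and bead-bound protein was measured by qPCR. Kd values came from Hill-equation fits with slope −1 (Levenberg-Marquardt).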
# [1] = system: U937 human histiocytic leukemia cell line; experiment: Cellular assay: inhibition of TSQ induced necroptosis, CellTitre-Glo viability; settings: Homo sapiens, U-937; U937 cells, 48 hours, TSQ cocktail, Table 26; read-out: Inhibition of TSQ-induced necroptosis (IC50 cell-based assay)
# Method: Cellular Assay: Screening Compounds for Inhibition of TSQ Induced Necroptosis, 384 Well Plate Format.
# as §1, §2
# Percent viability was calculated for each compound according to equation (2):
# as §3
# human RIPK1 = human RIPK1 (Homo sapiens (Human), UniProt Q13546); experiment: KINOMEscan binding assay, human RIPK1; settings: Table 21
# Chain of human RIPK1 (Q13546 whole entry): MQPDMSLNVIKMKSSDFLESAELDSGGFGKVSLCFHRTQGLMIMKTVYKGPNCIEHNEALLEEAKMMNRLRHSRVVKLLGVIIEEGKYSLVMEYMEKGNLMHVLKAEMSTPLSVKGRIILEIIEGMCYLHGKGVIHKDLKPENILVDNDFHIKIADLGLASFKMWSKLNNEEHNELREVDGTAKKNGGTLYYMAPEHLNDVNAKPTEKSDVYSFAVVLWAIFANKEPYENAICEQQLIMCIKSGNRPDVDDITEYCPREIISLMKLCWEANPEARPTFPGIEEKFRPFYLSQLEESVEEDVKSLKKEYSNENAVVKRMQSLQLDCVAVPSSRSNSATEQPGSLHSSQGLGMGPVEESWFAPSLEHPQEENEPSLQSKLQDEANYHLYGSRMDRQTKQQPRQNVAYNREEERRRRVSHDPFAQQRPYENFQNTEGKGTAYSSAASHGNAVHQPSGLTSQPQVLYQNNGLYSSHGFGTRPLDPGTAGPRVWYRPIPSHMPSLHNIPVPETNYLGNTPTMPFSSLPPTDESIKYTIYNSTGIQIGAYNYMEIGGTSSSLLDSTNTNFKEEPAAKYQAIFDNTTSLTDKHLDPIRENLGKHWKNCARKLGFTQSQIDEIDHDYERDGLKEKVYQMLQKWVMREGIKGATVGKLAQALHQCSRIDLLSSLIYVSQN
# Method in brief: as §4
# human RIPK3 = human RIPK3 (Homo sapiens (Human), UniProt Q9Y572); experiment: KINOMEscan binding assay, human RIPK3; settings: Table 21
# Chain of human RIPK3 (Q9Y572 whole entry): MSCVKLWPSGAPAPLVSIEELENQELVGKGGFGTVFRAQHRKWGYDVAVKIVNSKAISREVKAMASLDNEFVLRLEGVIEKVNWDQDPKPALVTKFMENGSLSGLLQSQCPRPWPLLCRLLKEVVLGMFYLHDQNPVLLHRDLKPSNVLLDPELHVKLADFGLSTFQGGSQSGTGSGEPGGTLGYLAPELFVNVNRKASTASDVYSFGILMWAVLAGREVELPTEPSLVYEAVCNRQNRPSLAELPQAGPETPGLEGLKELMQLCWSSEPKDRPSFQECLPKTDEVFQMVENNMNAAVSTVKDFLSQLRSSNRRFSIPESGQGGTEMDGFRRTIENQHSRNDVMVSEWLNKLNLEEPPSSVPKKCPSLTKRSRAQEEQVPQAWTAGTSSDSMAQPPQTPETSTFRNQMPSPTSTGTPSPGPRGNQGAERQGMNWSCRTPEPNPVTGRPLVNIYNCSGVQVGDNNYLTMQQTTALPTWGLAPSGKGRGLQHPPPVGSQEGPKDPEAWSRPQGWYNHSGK
# Method in brief: as §4
# [2] = system: Immortalised Mouse Dermal Fibroblasts (MDFs); experiment: Cellular assay: inhibition of TSI induced necroptosis, CellTitre-Glo viability; settings: Mus musculus, Fibroblast; MDF, 3 hours TSI cocktail, Table 24; read-out: Inhibition of TSI-induced necroptosis (IC50 cell-based assay) in MDF
# Method in brief: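 Necroptosis induced for 3 h with TSI: rhTNF 100 ng/ml, Smac mimetic 500 nM, caspase inhibitor IDN-6556 10 μM. Mouse dermal fibroblasts had received compound (36 μM top, ten three-fold steps) 30 min beforehand. ATP-based viability scaled between untreated and TSI-only wells; IC50 taken as 4-parameter curve inflection.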
# [3] = Homo sapiens, U-937, Table 26, read-out: Off-target effect (IC50 cell-based assay)
# [4] = Homo sapiens, U-937, Table 23, read-out: Off-target effect (IC50 cell-based assay)
Structure (SMILES),IC50 (U937 cells; [3]) [µM],Kd (human MLKL (full length)) [nM],IC50 [1] [nM],also measured
"Cc1ncsc1-c1ccc(CNC(=O)[C@@H]2C[C@@H](O)CN2C(=O)[C@H](NC(=O)C2(F)CC2)C(C)(C)C)c(OCCCCCCCn2cc(-c3cnc(N)c4c(-c5ccc(NS(=O)(=O)C(F)F)c(O[C@@H](C)c6ccc(F)cc6)c5)nn(C)c34)cn2)c1 [Compound 1030, (2S,4R)—N-[(2-{[7-(4-{4-amino-3-[4-(difluoromethanesulfonamido)-3-[(1S)-1-(4-fluorophenyl)ethoxy]phenyl]-1-methyl-1H-pyrazolo[4,3-c]pyridin-7-yl}-1H-pyrazol-1-yl)heptyl]oxy}-4-(4-methyl-1,3-thiazol-5-yl)phenyl)methyl]-1-[(2R)-2-[(1-fluorocyclopropyl)formamido]-3,3-dimethylbutanoyl]-4-hydroxypyrrolidine-2-carboxamide]",> 10,10 to 1000,< 1000,–
"Cc1ncsc1-c1ccc(CNC(=O)[C@@H]2C[C@H](O)CN2C(=O)[C@@H](NC(=O)COCCOCCn2cc(-c3cnc(N)c4c(-c5ccc(NS(=O)(=O)C(F)F)c(O[C@@H](C)c6ccc(F)cc6)c5)nn(C)c34)cn2)C(C)(C)C)cc1 [Compound 1007, (2S,4S)-1-[(2S)-2-(2-{2-[2-(4-{4-amino-3-[4-(difluoromethanesulfonamido)-3-[(1S)-1-(4-fluorophenyl)ethoxy]phenyl]-1-methyl-1H-pyrazolo[4,3-c]pyridin-7-yl}-1H-pyrazol-1-yl)ethoxy]ethoxy}acetamido)-3,3-dimethylbutanoyl]-4-hydroxy-N-{[4-(4-methyl-1,3-thiazol-5-yl)phenyl]methyl}pyrrolidine-2-carboxamide]",> 10,10 to 1000,< 1000,–
"CCS(=O)(=O)Nc1ccc(-c2nn(C)c3c(-c4cnn(CCOCCOCC(=O)N[C@H](C(=O)N5C[C@H](O)C[C@H]5C(=O)NCc5ccc(-c6scnc6C)cc5)C(C)(C)C)c4)cnc(N)c23)cc1 [Compound 1019, (2S,4R)-1-[(2S)-2-{2-[2-(2-{4-[4-amino-3-(4-ethanesulfonamidophenyl)-1-methyl-1H-pyrazolo[4,3-c]pyridin-7-yl]-1H-pyrazol-1-yl}ethoxy)ethoxy]acetamido}-3,3-dimethylbutanoyl]-4-hydroxy-N-{[4-(4-methyl-1,3-thiazol-5-yl)phenyl]methyl}pyrrolidine-2-carboxamide]",> 10,10 to 1000,1000 to 10000,–
Cc1ncsc1-c1ccc(CNC(=O)[C@@H]2C[C@@H](O)CN2C(=O)[C@@H](NC(=O)COCCOCCn2cc(-c3cnc(N)c4c(-c5ccc(NS(=O)(=O)C(F)F)cc5)nn(C)c34)cn2)C(C)(C)C)cc1 [Compound 1021],> 10,< 10,1000 to 10000,–
"C[C@H](Oc1cc(-c2nn(C)c3c(-c4cnn(C5CCN(C)C6(CC6)C5)c4)cnc(N)c23)ccc1NS(=O)(=O)C(F)F)c1ccc(F)cc1 (single isomer, unassigned) [Compound 170, N-(4-(4-amino-1-methyl-7-(1-((S*)-4-methyl-4-azaspiro[2.5]octan-7-yl)-1H-pyrazol-4-yl)-1H-pyrazolo[4,3-c]pyridin-3-yl)-2-((S)-1-(4-fluorophenyl)ethoxy)phenyl)-1,1-difluoromethanesulfonamide]",–,–,–,IC50 (U937 cells; [4]): > 10 µM
"CCS(=O)(=O)Nc1ccc(-c2n[nH]c3c(-c4cnn(CCCCC(=O)N[C@H](C(=O)N5C[C@H](O)C[C@H]5C(=O)NCc5ccc(-c6scnc6C)cc5)C(C)(C)C)c4)cnc(N)c23)cc1OCc1ccc(F)cc1 [Compound 1002, (2S,4R)-1-[(2S)-2-{5-[4-(4-amino-3-{4-ethanesulfonamido-3-[(4-fluorophenyl)methoxy]phenyl}-1H-pyrazolo[4,3-c]pyridin-7-yl)-1H-pyrazol-1-yl]pentanamido}-3,3-dimethylbutanoyl]-4-hydroxy-N-{[4-(4-methyl-1,3-thiazol-5-yl)phenyl]methyl}pyrrolidine-2-carboxamide]",> 10,< 10,> 10000,–
"CCS(=O)(=O)Nc1ccc(-c2nn(C)c3c(-c4cnn(CCCCCCC(=O)N[C@H](C(=O)N5C[C@H](O)C[C@H]5C(=O)NCc5ccc(-c6scnc6C)cc5)C(C)(C)C)c4)cnc(N)c23)cc1 [Compound 1020, (2S,4R)-1-[(2S)-2-(7-{4-[4-amino-3-(4-ethanesulfonamidophenyl)-1-methyl-1H-pyrazolo[4,3-c]pyridin-7-yl]-1H-pyrazol-1-yl}heptanamido)-3,3-dimethylbutanoyl]-4-hydroxy-N-{[4-(4-methyl-1,3-thiazol-5-yl)phenyl]methyl}pyrrolidine-2-carboxamide]",> 10,10 to 1000,< 1000,–
"C[C@H](Oc1cc(-c2nn(C)c3c(-c4ccnc(C(C)(C)C)c4)cnc(N)c23)ccc1NS(=O)(=O)C(F)F)c1ccc(F)cc1 [Compound 48, (S)-N-(4-(4-amino-7-(2-(tert-butyl)pyridin-4-yl)-1-methyl-1H-pyrazolo[4,3-c]pyridin-3-yl)-2-(1-(4-fluorophenyl)ethoxy)phenyl)-1,1-difluoromethanesulfonamide]",–,–,–,IC50 (U937 cells; [4]): 1 to 10 µM; Kd (human RIPK1): > 10 µM; Kd (human RIPK3): > 10 µM
"CCS(=O)(=O)Nc1ccc(-c2nn(C)c3c(-c4cnn(CCOCCOCC(=O)N[C@H](C(=O)N5C[C@H](O)C[C@H]5C(=O)NCc5ccc(-c6scnc6C)cc5)C(C)(C)C)c4)cnc(C)c23)cc1F [Compound 1029, (2S,4R)-1-[(2S)-2-{2-[2-(2-{4-[3-(4-ethanesulfonamido-3-fluorophenyl)-1,4-dimethyl-1H-pyrazolo[4,3-c]pyridin-7-yl]-1H-pyrazol-1-yl}ethoxy)ethoxy]acetamido}-3,3-dimethylbutanoyl]-4-hydroxy-N-{[4-(4-methyl-1,3-thiazol-5-yl)phenyl]methyl}pyrrolidine-2-carboxamide]",> 10,–,< 1000,–
"C[C@H](Oc1cc(-c2nn(C)c3c(-c4cnn(C5CCN(C)C6(CC6)C5)c4)cnc(N)c23)ccc1NS(=O)(=O)C(F)F)c1ccc(F)cc1 (single isomer, unassigned) [Compound 171, N-(4-(4-amino-1-methyl-7-(1-((R*)-4-methyl-4-azaspiro[2.5]octan-7-yl)-1H-pyrazol-4-yl)-1H-pyrazolo[4,3-c]pyridin-3-yl)-2-((S)-1-(4-fluorophenyl)ethoxy)phenyl)-1,1-difluoromethanesulfonamide]",–,–,–,"IC50 (U937 cells; Table 23, read-out: Off-target effect (IC50 cell-based assay)): > 10 µM"
"C[C@H](Oc1cc(-c2nn(C)c3c(-c4cnn(C5CCN(C)CC5)c4)cnc(N)c23)ccc1NS(=O)(=O)C(F)F)c1ccc(F)cc1 [Compound 46, (S)-N-(4-(4-amino-1-methyl-7-(1-(1-methylpiperidin-4-yl)-1H-pyrazol-4-yl)-1H-pyrazolo[4,3-c]pyridin-3-yl)-2-(1-(4-fluorophenyl)ethoxy)phenyl)-1,1-difluoromethanesulfonamide]",–,–,–,IC50 (U937 cells; [4]): > 10 µM; IC50 [2]: < 1000 nM; Kd (human RIPK1): > 10 µM; Kd (human RIPK3): > 10 µM
